Source: ChEMBL document CHEMBL1201862, “PubChem BioAssay data set” (2004)
Active and inactive are the calls of the source.

Assays:
Aminopeptidase N = molecular target: T1, Aminopeptidase N (Plasmodium falciparum FcB1/Columbia, UniProt O96935); assay: malaria alanyl aminopeptidase activity blockers – biochemical, fluorogenic H-Leu-NHMec substrate, 1536-well (AID 1445); design: species or system Plasmodium falciparum 3D7, 3D7
T1 sequence (O96935 whole entry): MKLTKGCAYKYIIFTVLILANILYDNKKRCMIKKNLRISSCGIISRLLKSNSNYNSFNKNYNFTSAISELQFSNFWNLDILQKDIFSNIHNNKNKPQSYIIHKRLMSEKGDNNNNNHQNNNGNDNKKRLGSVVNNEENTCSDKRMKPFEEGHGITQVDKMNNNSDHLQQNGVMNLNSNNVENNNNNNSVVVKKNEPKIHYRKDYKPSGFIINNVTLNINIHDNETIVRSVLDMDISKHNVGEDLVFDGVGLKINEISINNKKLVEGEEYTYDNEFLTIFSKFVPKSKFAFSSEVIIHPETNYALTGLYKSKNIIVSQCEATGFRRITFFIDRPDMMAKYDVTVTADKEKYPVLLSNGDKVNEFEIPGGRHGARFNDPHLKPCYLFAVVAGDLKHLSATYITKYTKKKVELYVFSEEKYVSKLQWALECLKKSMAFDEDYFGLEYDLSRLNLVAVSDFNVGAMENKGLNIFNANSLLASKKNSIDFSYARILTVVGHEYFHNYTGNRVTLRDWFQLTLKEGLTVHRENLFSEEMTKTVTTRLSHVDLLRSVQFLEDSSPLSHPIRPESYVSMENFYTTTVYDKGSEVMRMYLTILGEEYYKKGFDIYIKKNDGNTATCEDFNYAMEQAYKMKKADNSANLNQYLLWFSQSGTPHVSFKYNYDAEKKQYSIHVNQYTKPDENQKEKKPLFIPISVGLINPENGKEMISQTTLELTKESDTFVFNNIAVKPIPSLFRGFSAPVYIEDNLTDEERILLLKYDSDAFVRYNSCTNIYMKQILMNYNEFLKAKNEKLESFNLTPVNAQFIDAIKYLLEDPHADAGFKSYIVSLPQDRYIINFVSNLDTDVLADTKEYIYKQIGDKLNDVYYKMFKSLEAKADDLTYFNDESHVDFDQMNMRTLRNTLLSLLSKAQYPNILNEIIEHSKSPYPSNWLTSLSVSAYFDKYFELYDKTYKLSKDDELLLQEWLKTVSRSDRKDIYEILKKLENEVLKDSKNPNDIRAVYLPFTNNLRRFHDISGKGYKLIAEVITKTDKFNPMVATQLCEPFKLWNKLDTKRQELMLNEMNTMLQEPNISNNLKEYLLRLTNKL

SUMO-activating enzyme [1] = molecular target: T2, SUMO-activating enzyme (Homo sapiens, UniProt Q9UBT2); assay: blockers of UBC9-mediated SUMO conjugation – biochemical, AlphaScreen, SUMOylation inhibitor project, confirmation (AID 2018); type: functional
T2 sequence (Q9UBE0 whole entry): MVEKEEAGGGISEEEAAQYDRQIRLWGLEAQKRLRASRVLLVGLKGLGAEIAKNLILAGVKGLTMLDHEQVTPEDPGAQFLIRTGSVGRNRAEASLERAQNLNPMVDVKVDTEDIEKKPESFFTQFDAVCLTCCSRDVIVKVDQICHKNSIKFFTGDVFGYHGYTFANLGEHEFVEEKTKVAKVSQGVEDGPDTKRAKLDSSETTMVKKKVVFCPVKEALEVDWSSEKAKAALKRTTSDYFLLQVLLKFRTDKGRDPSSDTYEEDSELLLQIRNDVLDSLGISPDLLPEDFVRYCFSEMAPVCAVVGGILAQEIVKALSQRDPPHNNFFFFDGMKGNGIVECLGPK
T2 sequence (Q9UBT2 whole entry): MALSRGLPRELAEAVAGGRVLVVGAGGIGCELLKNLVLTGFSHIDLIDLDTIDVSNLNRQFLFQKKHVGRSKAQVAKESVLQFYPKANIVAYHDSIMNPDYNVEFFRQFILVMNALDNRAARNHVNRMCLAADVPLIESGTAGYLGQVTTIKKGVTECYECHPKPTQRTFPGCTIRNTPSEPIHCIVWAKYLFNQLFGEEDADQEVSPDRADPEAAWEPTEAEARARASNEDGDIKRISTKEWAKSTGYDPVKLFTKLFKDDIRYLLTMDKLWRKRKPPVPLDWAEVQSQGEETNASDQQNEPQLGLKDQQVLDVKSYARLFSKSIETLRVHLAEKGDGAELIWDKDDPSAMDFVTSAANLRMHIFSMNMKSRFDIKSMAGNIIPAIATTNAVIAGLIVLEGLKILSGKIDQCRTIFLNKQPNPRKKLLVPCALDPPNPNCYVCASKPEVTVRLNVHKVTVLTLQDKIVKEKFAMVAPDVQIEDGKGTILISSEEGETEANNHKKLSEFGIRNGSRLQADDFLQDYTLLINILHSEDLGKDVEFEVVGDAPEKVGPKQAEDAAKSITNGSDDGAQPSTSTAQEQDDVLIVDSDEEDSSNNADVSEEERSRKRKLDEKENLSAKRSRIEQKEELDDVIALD

Large T antigen = Large T antigen (Simian virus 40, UniProt P03070); type: functional, Betapolyomavirus macacae;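 also: Confirmatory-stage PubChem screen for compounds that inhibit SV40 T antigen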
Sequence of Large T antigen (P03070 whole entry, the tested form may be a part): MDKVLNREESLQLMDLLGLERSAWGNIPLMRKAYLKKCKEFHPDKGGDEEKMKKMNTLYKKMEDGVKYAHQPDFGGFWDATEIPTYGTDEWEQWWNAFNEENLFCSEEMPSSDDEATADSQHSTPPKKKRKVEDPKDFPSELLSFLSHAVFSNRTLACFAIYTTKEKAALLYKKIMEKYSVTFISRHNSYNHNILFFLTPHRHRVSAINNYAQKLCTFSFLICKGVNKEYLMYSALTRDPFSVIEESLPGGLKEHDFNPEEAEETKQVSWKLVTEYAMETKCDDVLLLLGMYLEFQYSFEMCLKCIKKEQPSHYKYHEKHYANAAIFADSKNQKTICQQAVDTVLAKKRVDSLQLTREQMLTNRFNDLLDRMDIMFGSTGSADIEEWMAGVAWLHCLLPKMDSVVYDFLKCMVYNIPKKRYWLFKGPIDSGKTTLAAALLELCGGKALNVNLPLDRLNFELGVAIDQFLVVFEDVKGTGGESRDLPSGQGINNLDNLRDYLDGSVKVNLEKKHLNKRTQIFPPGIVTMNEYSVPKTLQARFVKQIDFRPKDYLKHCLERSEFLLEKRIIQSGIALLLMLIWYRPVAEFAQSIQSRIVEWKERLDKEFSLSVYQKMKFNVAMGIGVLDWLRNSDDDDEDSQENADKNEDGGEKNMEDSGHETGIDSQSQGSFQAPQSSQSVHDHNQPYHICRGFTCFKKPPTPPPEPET

[2] = CCR5-tropic HIV-1 fusion blockers – cell-based, CCR5-tropic Env, dose response (AID 2279); type: functional
SUMO-activating enzyme [3] = molecular target: T2, SUMO-activating enzyme; assay: blockers of SAE1/SAE2–UBC9 SUMO transfer – biochemical, HTRF, uHTS, primary screen (AID 2006); type: protein-complex assay
[4] = molecular target: T3, Induced myeloid leukemia cell differentiation protein Mcl-1 (Homo sapiens, UniProt Q07820); assay: blockers of MCL1 binding to BIM peptide – biochemical, fluorescence polarization, BIM-BH3 peptide, 1536-well, dose response (AID 2217)
T3 sequence (Q07820 whole entry): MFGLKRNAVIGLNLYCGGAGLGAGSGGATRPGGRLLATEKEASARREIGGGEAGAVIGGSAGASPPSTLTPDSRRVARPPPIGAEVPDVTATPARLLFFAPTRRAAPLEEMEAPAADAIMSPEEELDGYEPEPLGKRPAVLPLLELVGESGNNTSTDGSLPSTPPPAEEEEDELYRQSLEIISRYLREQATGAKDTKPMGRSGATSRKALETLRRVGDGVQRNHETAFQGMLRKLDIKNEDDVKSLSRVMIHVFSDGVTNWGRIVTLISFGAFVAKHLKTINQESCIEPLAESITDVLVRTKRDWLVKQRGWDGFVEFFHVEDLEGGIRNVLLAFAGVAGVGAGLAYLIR

Bcl-2-like protein 1 = Bcl-2-like protein 1 (Homo sapiens, UniProt Q07817); assay: blockers of BCLXL peptide binding – biochemical, fluorescence polarization, 1536-well, selectivity assay for MCL1 inhibitor project, dose response (AID 2218)
Sequence of Bcl-2-like protein 1 (Q07817 whole entry): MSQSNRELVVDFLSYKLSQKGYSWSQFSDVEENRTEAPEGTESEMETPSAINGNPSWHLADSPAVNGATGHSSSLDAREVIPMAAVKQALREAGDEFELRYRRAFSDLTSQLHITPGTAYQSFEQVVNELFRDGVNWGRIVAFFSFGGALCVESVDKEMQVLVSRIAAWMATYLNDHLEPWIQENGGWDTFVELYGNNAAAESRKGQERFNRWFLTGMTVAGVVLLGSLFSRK

[5] = molecular target: T3, Induced myeloid leukemia cell differentiation protein Mcl-1; type: functional
Cysteine protease ATG4B = molecular target: T4, Cysteine protease ATG4B (Homo sapiens, UniProt Q9Y4P1); type: functional;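 also: Fluorescence-based dose-response confirmation assay measuring inhibition of ATG4B activity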
T4 sequence (Q9Y4P1 whole entry): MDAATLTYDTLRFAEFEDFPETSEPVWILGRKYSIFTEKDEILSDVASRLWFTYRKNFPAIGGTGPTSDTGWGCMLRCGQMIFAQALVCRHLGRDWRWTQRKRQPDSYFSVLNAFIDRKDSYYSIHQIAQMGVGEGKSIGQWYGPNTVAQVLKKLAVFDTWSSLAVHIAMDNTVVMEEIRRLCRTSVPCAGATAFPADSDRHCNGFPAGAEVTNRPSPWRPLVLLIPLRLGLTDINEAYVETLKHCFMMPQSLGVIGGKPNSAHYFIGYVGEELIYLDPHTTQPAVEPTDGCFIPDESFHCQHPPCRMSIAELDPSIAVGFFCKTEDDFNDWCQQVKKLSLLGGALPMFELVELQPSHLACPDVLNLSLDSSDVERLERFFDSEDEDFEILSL

Phospholipase A2 = Phospholipase A2 (Homo sapiens, UniProt P04054); type: functional;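 also: confirmatory dose-response counterscreen on phospholipase A2, testing hits that came from an ultra-high-throughput screen for ATG4B inhibitors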
Vero = assay: viability of Vero cells under compound – cytotoxicity control for flavivirus capping enzyme inhibitors (AID 588742); type: functional; conditions: Chlorocebus sabaeus
Genome polyprotein = Genome polyprotein (dengue virus type 2, UniProt P29990); assay: flavivirus cap methylation enzyme inhibition – biochemical, confirmation dose response, primary screen (AID 588689); type: functional
Sequence of Genome polyprotein (P29990 2492-3391 limits assumed): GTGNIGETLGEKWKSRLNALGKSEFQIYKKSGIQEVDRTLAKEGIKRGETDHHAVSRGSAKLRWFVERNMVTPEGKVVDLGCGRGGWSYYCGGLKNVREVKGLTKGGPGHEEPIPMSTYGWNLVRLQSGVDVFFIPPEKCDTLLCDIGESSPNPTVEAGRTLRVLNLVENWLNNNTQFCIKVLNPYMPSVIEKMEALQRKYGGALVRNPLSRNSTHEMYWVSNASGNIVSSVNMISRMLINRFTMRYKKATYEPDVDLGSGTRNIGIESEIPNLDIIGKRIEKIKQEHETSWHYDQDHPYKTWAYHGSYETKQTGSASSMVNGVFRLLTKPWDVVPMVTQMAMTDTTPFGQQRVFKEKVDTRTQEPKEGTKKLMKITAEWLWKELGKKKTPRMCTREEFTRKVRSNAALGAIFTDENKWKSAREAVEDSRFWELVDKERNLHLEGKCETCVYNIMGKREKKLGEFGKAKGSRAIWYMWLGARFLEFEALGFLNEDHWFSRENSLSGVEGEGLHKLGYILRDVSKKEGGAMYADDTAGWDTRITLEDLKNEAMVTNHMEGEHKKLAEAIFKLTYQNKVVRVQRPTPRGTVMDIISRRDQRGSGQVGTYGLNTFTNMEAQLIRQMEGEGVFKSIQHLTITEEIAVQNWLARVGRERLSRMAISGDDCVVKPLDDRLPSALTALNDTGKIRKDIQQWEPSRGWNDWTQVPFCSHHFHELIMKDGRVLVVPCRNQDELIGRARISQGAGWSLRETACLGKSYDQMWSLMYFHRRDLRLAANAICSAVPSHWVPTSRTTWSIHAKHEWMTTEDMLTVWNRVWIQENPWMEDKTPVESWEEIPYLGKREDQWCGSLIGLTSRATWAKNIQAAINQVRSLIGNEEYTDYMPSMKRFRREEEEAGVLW

[6] = molecular target: 26S proteasome non-ATPase regulatory subunit 14 (Homo sapiens, UniProt O00487); assay: inhibition of proteasome subunit RPN11 – biochemical, fluorescence polarization, uHTS hits, confirmation (AID 602368); type: functional
Sequence of 26S proteasome non-ATPase regulatory subunit 14 (O00487 whole entry): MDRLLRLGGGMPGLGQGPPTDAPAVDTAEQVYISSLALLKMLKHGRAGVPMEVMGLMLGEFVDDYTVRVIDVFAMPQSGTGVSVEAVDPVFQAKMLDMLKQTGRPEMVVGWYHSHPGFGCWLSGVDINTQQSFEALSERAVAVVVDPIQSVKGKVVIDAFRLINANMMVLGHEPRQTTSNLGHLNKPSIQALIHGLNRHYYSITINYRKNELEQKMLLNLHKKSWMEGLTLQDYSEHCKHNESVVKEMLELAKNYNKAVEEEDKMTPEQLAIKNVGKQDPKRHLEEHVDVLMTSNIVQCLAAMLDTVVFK

[7] = molecular target: 72 kDa type IV collagenase (Homo sapiens, UniProt P08253); assay: Dose Response validation of uHTS RPN11 inhibitor hits using a MMP-2 Fluorescence assay.; type: functional
Sequence of 72 kDa type IV collagenase (P08253 whole entry): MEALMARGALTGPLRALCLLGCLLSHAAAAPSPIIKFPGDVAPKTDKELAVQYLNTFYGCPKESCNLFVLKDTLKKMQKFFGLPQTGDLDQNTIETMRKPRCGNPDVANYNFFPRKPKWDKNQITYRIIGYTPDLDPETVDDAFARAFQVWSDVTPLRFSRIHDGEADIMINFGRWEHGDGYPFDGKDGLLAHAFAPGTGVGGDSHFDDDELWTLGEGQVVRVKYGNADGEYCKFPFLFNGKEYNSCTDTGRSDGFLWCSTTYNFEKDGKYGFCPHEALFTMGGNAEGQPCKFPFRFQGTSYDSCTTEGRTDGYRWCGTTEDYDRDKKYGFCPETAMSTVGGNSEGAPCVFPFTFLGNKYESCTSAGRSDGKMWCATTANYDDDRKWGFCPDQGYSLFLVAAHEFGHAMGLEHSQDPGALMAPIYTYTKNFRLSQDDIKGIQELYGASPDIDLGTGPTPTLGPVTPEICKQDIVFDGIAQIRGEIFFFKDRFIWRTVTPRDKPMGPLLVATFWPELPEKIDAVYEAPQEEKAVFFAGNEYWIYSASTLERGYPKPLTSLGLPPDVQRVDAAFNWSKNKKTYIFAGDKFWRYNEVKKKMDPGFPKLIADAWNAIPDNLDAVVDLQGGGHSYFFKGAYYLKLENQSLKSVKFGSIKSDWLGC

Prothrombin = Prothrombin (Bos taurus, UniProt P00735); assay: thrombin protease inhibitors – biochemical, fluorescence polarization, uHTS hits, dose response (AID 602369); type: functional
[8] = molecular target: T5, Methionyl-tRNA synthetase, putative (Trypanosoma brucei brucei, UniProt Q38C91); type: functional, Trypanosoma brucei brucei strain 927/4 GUTat10.1
T5 sequence (Q38C91 whole entry): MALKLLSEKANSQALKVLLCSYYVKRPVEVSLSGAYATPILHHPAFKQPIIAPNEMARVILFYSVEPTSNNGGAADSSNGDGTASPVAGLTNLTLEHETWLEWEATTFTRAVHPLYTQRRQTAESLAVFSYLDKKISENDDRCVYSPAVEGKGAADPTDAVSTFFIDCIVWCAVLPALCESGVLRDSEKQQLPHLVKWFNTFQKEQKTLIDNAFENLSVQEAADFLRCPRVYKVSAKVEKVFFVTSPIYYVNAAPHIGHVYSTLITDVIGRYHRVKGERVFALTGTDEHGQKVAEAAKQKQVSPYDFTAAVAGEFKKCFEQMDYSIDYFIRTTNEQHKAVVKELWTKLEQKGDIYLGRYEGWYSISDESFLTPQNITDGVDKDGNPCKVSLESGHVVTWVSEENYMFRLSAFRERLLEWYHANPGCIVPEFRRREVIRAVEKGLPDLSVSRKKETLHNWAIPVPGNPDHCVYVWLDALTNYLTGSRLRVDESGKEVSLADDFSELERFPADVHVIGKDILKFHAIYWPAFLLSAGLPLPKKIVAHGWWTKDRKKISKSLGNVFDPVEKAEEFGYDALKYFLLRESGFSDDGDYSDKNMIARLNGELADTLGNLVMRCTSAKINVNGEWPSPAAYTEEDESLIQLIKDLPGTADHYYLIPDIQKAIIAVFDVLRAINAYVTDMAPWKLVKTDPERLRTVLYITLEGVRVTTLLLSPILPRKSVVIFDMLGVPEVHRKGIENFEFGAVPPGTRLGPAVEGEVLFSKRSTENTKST

[9] = Counterscreen for inhibitors of Trypanosoma brucei methionyl tRNA synthetase (MetRS): Luminescence-based cell-based high throughput dose response assay to identify compounds that are cytotoxic to Jurkat human T lymphocyte cells.; type: functional
[10] = molecular target: T5, Methionyl-tRNA synthetase, putative; type: functional, Trypanosoma brucei brucei strain 927/4 GUTat10.1; remark: listed apart in the source
[11] = IC50 of Artemis nuclease activity blockers – biochemical, fluorescence intensity, dose response (AID 720701); type: functional;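 also: Artemis endonuclease enzyme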
[12] = molecular target: T6, RNA-binding protein pos-1 (Caenorhabditis elegans, UniProt G5EF15); assay: disruptors of C. elegans POS-1 RNA interaction – biochemical, fluorescence polarization, dose response (AID 1964);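 also: purified POS-1 fused to maltose binding protein made in E. coli; potency of compounds blocking POS-1 binding to fluorescent RNA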
T6 sequence (G5EF15 whole entry): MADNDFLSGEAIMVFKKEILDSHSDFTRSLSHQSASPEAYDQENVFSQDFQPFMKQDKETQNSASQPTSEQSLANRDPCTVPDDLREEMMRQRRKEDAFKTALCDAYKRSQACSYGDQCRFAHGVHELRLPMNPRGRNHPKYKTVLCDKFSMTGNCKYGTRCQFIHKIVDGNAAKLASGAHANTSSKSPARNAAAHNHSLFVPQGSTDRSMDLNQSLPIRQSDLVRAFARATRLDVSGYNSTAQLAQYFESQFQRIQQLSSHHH

[13] = Counterscreen for IDE inhibitors: Luminescence-based cell-based high throughput dose response assay to identify compounds that are cytotoxic to HEK cells. [Related pubchem assays: 434962 (Primary screen (IDE inhibitors in singlicate)), 449730 (Counterscreen (Cytotoxicity in triplicate)), 435028 (Confirmation (IDE inhibitors in triplicate)) …; type: functional; conditions: HEK293
Insulin-degrading enzyme = molecular target: T7, Insulin-degrading enzyme (Homo sapiens, UniProt P14735); assay: Dose Response: Fluorescence polarization-based cell-based high throughput dose response assay for inhibitors of insulin-degrading enzyme (IDE). [Related pubchem assays: 434962 (Primary screen (IDE inhibitors in singlicate)), 449730 (Counterscreen (Cytotoxicity in triplicate)), 435028 (Confirmation (IDE inhibitors in triplicate)), 434984 (Summary …; type: functional
T7 sequence (P14735 whole entry): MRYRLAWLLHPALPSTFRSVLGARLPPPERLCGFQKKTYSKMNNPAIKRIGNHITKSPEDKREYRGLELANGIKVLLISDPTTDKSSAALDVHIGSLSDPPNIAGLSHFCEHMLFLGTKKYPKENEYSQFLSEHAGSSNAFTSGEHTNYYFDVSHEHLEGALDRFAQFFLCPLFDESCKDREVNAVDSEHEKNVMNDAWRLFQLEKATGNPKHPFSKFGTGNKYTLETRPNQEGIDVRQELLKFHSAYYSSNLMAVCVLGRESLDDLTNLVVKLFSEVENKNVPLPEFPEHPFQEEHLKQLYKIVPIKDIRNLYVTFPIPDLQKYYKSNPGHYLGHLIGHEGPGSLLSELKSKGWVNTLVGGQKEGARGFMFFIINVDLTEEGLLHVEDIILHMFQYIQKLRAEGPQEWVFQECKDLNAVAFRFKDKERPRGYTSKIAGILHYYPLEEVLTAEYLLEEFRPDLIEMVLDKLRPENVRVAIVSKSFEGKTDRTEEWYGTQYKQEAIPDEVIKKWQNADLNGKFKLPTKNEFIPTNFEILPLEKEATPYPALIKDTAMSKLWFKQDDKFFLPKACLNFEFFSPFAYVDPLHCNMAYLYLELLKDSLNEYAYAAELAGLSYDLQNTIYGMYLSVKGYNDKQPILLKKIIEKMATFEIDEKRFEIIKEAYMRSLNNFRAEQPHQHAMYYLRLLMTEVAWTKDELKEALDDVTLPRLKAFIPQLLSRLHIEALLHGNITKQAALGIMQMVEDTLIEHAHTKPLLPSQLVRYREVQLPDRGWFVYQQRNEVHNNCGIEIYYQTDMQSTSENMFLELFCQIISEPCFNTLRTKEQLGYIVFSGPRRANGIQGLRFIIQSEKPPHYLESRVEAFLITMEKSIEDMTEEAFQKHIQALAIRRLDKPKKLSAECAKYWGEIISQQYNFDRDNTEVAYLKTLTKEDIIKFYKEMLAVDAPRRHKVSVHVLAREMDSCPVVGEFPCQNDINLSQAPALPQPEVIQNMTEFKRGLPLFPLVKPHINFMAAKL

Question: What does the source list for `O=C(N/N=C/c1ccc(-c2ccc(S(=O)(=O)Nc3ncccn3)cc2)o1)c1cc2ccccc2cc1O`?
Answer: IC50 (Aminopeptidase N): 42.3 µM (active); IC50 (SUMO-activating enzyme [1]): 2.21 µM (active); IC50 (Large T antigen): 52.8 µM (active); IC50 [2]: 17 µM (active); IC50 (SUMO-activating enzyme [3]): 12.4 µM (active); IC50 [4]: > 4.03 µM (active); IC50 (Bcl-2-like protein 1): > 109 µM (not active); IC50 [5]: 1.63 µM (active); IC50 (Cysteine protease ATG4B): 5.98 µM (active); IC50 (Phospholipase A2): 20.3 µM (inactive); CC50 (Vero): 26 µM (active); IC50 (Genome polyprotein): 76.5 µM (active); IC50 [6]: 33.3 µM (active); IC50 [7]: > 100 µM (inactive); IC50 (Prothrombin): 75.6 µM (active); IC50 [8]: 15.8 µM (inactive); IC50 [9]: 83.3 µM (inactive); IC50 [10]: 18.6 µM (inactive); IC50 [11]: 11.4 µM (active)

Question: Which EC50 [12] does the source give for `COc1ccc(/N=C(\C)c2sc3ccccc3c2O)cc1` here?
Answer: The EC50 was > 300 µM (not active).

Question: And the IC50 [13]?
Answer: The IC50 was > 55.7 µM (not active).

Question: And the IC50 (Insulin-degrading enzyme)?
Answer: Its IC50 is > 18.7 µM (not active).
